Measurements published in paper PMC9500544, “Anti-Trichomonas gallinae activity of essential oils and main compounds from Lamiaceae and Asteraceae plants” (Frontiers in Veterinary Science, 2022).
≈ marks a conversion by molar mass, not a printed value. Like-named read-outs stand apart in the source and are kept apart here.

Tests used:
[1] = test system: Trichomonas gallinae trophozoites; assay: Anti-trichomonal (AT) activity in vitro, MTT reduction assay on trophozoites; assay type: cell-based; details: for IC50: Trichomonas gallinae, read-out: T. gallinae (IC50), concentration needed to produce 50% trophozoite mortality; for AT activity against T. gallinae (in words): no concentration stated
Description: The AT activity assay was performed using round bottom microwell plates in quadruplicate. Each well had 150 μl of T. gallinae trophozoites in Trypticase-Yeast Extract-Maltose medium (TYM) with 10% fetal calf serum (Sigma, Madrid, Spain) at 500.000 trophozoites/ml ([29]). EOs and pure compounds were solved in DMSO (Sigma, Madrid, Spain) (<1% final concentration). […] Trophozoite viability was analyzed using the modified MTT colorimetric assay method as previously described in literature ([29]). Briefly, after incubating the plate for 24 h at 37°C with the EOs and compounds to be tested, the plates were centrifuged at 750 x g, the medium was eliminated and 100 μl of a solution of MTT (Sigma, Madrid, Spain) (1.25 μg/ml) and PMS (Sigma, Madrid, Spain) (0.1 μg/ml) in PBS (Sigma, Madrid, Spain) was added to each well. The plate was incubated for 45 min in dark conditions to allow the reduction of MTT to formazan salts. Prior to reading, 100 μl of DMSO was added to each well to dissolve the formazan crystals. The plate was read in a spectrophotometer using a wavelength of 570 nm.
The percentage of AT activity was calculated as growth inhibition using the following formula:
% AT = 100-[(Ap-Ab)÷(Ac-Ab)]×100
Where Ap is the absorbance of the tested product, Ab the absorbance of the blank and Ac the absorbance of the control wells (culture without treatment).
Pure compounds were assayed using the same method described above, although the concentrations tested were 100, 75, 50, 25, 10, and 1 μg/ml. Metronidazole (Acros Organics, Madrid Spain) was used as a reference drug for antitrichomonal activity.
IC50 (μg/ml) reflects the dose needed to produce 50% mortality of T. gallinae trophozoites.
(§1) IC50 anti-trichomonal activity and CC50 cytotoxic activity were determined from the dose-response experiment, employing a linear regression analysis (% cell viability on log dose).

[2] = in vitro; assay type: cell-based
Description: (§2) African green monkey kidney cells (Vero cells) were grown in Dulbecco's modified Eagle's minimal essential medium (DMEM, Avantor, Llinars del Vallès, Barcelona) supplemented with 10% fetal calf serum (Sigma, Madrid, Spain) and 1% penicillin/streptomycin (Fisher Scientific, Madrid, Spain) at 37°C under a humidified atmosphere of 5% CO2/95% air.
(§3) Cells seeded in 96-well flat-bottom microplates with 100 μL medium per well (initial densities 10^4 cells per well) were exposed for 48 h to serial dilutions of the test compounds in DMSO (<1% final concentration). Cell viability was analyzed by the MTT colorimetric assay method, and the purple-colored formazan precipitate was dissolved with 100 μL of DMSO ([30]).
as §1

[3] = test system: Vero cells; assay: in vitro; assay type: cell-based; details: pure compounds; for Cytotoxic activity on Vero cells (in words): up to 100 μg/ml, 48 h; for Vero cells (CC50), concentration needed to produce 50% Vero cell mortality: 48 h exposure, interval in parentheses
Description: as §2, §3, §1

[4] = cited from earlier work
[5] = pure compounds, 24 h incubation, interval in parentheses
[6] = pure compounds, 48 h exposure, interval in parentheses, read-out: Vero cells (CC50), concentration needed to produce 50% Vero cell mortality
[7] = SI = CC50 (Vero cells)/IC50 (T. gallinae)

With `Cc1ccc(C(C)C)c(O)c1` [Thymol] the IC50 [1, 5] was 38.4 µg/mL (≈ 256 µM) and the CC50 at 48 h ([2]; African green monkey) was over 100 µg/mL.
`Cc1ncc([N+](=O)[O-])n1CCO` [Metronidazole, reference compound] showed an IC50 [1, 5] of 1 µg/mL (≈ 5.84 µM) and a CC50 at 48 h ([2]; African green monkey) of over 100 µg/mL.
With `C=CC(C)(CCC=C(C)C)OC(C)=O` (stereo not shown) [Linalyl acetate] the “SI, Selectivity index” value [1] was over 3.1, the IC50 ([1]; 24 h) was 32.2 µg/mL and the CC50 [2] was over 100 µg/mL.
For `CC12CCC(CC1=O)C2(C)C` (stereo not shown) [Camphor], the IC50 [1, 5] was over 100 µg/mL and the CC50 at 48 h ([2]; African green monkey) was over 100 µg/mL.
For `C=C1CC/C=C(\C)CC[C@@H]2[C@@H]1CC2(C)C` [β-caryophyllene], the IC50 [1, 5] was 86.1 µg/mL (≈ 421 µM), the “AT activity against T. gallinae (in words)” value (shortened to “AT activity”) ([1]; pure compounds) was “slight activity” and the CC50 [2, 6] was 60.8 µg/mL (≈ 298 µM). For the same compound, the “Cytotoxic activity on Vero cells (in words)” value (shortened to “Cytotoxic activity”) [3] was “slightly toxic”.
Compound `Cc1ccc(C(C)C)cc1O` [Carvacrol] has an IC50 [1, 5] of over 100 µg/mL and a CC50 [2, 6] of over 100 µg/mL.
For `C=C1CC[C@H]2O[C@]2(C)CC[C@@H]2[C@@H]1CC2(C)C` [Caryophyllene oxide], the “AT activity” value ([1]; pure compounds) was “slight activity”, the “T. gallinae (IC50), concentration needed to produce 50% trophozoite mortality” value [1, 5] was “≈100 μg/ml” and the “Vero cells (CC50), concentration needed to produce 50% Vero cell mortality” value (from here on “Vero cells … to produce 50% Vero cell mortality”) [3] was over 100 µg/mL.
For `Cc1ccc(C(C)C)cc1` [p-cymene], the “SI, Selectivity index” value [1, 7] was over 1.7, the IC50 [1, 5] was 59.7 µg/mL (≈ 445 µM) and the CC50 [2, 6] was over 100 µg/mL.
With `C=C1C2CCC(C2)C1(C)C` (stereo not shown) [Camphene] the IC50 [1, 5] was 24 µg/mL (≈ 176 µM) and the CC50 [2, 6] was 74.8 µg/mL (≈ 549 µM).
`CC12CCC(CC1)C(C)(C)O2` [1,8 cineole] showed an IC50 [1, 5] of over 100 µg/mL and a CC50 at 48 h ([2]; African green monkey) of over 100 µg/mL.
In the case of `CC1=CCC(O)(C(C)C)CC1` (stereo not shown) [4-terpinenol], the “SI, Selectivity index” value [1, 7] is reported as over 2.4, the IC50 [1, 5] is reported as 41.5 µg/mL (≈ 269 µM) and the CC50 [2, 6] is reported as over 100 µg/mL.
For `C=CC(C)(O)CCC=C(C)C` (stereo not shown) [Linalool], the IC50 [1, 5] was over 100 µg/mL, the “AT activity” value ([1]; pure compounds) was “not an active AT compound” and the CC50 [2, 6] was over 100 µg/mL.
With `CC1(C)C2CCC1(C)C(O)C2` (stereo not shown) [Borneol] the IC50 [1, 5] was over 100 µg/mL and the CC50 at 48 h ([2]; African green monkey) was over 100 µg/mL.
With `CC1=CCC(C(C)C)=CC1` [γ-terpinene] the “SI, Selectivity index” value [1, 7] was over 2.3, the IC50 [1, 5] was 43.8 µg/mL (≈ 321 µM) and the CC50 at 48 h [2, 6] was over 100 µg/mL.
With `CC1(C)C(=O)[C@@]2(C)CCC1C2` [D-fenchone] the “T. gallinae (IC50), concentration needed to produce 50% trophozoite mortality” value [1, 5] was 61.9 (54.3–70.6) μg/ml and the “Vero cells … to produce 50% Vero cell mortality” value [3] was over 100 µg/mL.
Compound `C=C1CCC2CC1C2(C)C` (stereo not drawn) [β-pinene] has an IC50 [1, 5] of 29.6 µg/mL (≈ 217 µM) and a CC50 [2, 6] of 88.2 µg/mL (≈ 647 µM).
With `CC1=CCC2CC1C2(C)C` (stereo not drawn) [α-pinene] the IC50 [1, 5] was 44.2 µg/mL (≈ 324 µM), the CC50 at 48 h ([2]; African green monkey) was 88.9 µg/mL (≈ 653 µM) and the “Cytotoxic activity” value [3] was “slightly toxic”.
In the case of α and β thujone, the “Neurotoxicity (in words)” value [4] is given as “potent neurotoxic substances”, the “T. gallinae (IC50), concentration needed to produce 50% trophozoite mortality” value [1, 5] is given as 17.3 (11.3–26.3) μg/ml and the “Cytotoxic activity” value [3] is given as “did not show cytotoxic effect”. The “Vero cells … to produce 50% Vero cell mortality” value [3] was over 100 µg/mL.
`CC1=CC[C@@H](C(C)(C)O)CC1` [α-terpineol] showed an IC50 [1, 5] of over 100 µg/mL and a CC50 [2, 6] of over 100 µg/mL.
